{"source": "patent US20260306527A1", "about": "“PRMT INHIBITOR COMPOUNDS AND THE USES THEREOF” (Purdue Research Foundation, priority 2023, published 2026)"}
{"target": "T1, PRMT1 (Homo sapiens, UniProt Q99873)", "T1 construct": "made in house", "T1 sequence (Q99873 whole entry, species assumed)": "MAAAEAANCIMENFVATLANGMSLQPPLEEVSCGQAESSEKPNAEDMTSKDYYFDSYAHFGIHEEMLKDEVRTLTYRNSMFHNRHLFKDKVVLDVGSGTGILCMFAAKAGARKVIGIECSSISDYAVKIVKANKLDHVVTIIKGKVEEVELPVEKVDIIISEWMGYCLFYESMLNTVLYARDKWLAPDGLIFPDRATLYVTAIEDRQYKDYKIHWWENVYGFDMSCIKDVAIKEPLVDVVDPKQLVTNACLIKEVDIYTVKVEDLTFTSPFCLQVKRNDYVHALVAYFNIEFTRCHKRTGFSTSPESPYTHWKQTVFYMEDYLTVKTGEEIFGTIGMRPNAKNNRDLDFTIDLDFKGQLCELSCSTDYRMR", "assay": "SAHH-coupled fluorescence assay, inhibition of PRMT1", "type": "biochemical", "conditions": "not given", "procedure": "(§1) A fluorescence-based SAHH-coupled assay was applied to study the inhibition activity of all synthesized compounds on PRMT 1 and 3.\n(§2) The PRMT1 methylation assay was performed under the following conditions in a final well volume of 100 μL: 2.5 mM HEPES (pH=7.0), 25 mM NaCl, 25 μM EDTA, 50 μM TCEP, 0.01% Triton X-100, 5 μM SAHH, 0.1 μM PRMT1, 10 μM AdoMet, and 10 μM ThioGlo4. […] The fluorescence signal was monitored on a BMG CLARIOstar microplate reader with excitation at 400 nm and emission at 465 nm for 15 min. Data were processed using GraphPad Prism software 8.0.\n(§3) Next, the inhibition activity of the library was investigated for five PRMT members from type I PRMTs.\nas §2, with “A fluorescence-based SAHH-coupled assay was applied to determine the inhibition activity of all synthesized compounds on PRMT 1 and 3. The PRMT1” for “The PRMT1”, “software 8.0. All experiments were performed in duplicate.” for “software 8.0.”", "units": {"inhibition at 10 µM": "%"}}
{"smiles": "CCCCNC(=N)NCCCSC[C@H]1O[C@@H](n2cnc3c(NCCCc4ccccc4)ncnc32)[C@H](O)[C@@H]1O", "note": "[Compound 19a]", "inhibition at 10 µM": 94}
{"smiles": "N=C(NCCCSC[C@H]1O[C@@H](n2cnc3c(NCCCc4ccccc4)ncnc32)[C@H](O)[C@@H]1O)NC1CC1", "note": "[Compound 19b]", "inhibition at 10 µM": 86}
{"smiles": "N=C(NCCCSC[C@H]1O[C@@H](n2cnc3c(NCCCc4ccccc4)ncnc32)[C@H](O)[C@@H]1O)NC1CCC1", "note": "[Compound 19c]", "inhibition at 10 µM": 80}
{"smiles": "N=C(NCCCSC[C@H]1O[C@@H](n2cnc3c(NCCCc4ccccc4)ncnc32)[C@H](O)[C@@H]1O)NC1CCCC1", "note": "[Compound 19d]", "inhibition at 10 µM": 90}
{"smiles": "N=C(NCCCSC[C@H]1O[C@@H](n2cnc3c(NCCCc4ccccc4)ncnc32)[C@H](O)[C@@H]1O)NC1CCCCC1", "note": "[Compound 19e]", "inhibition at 10 µM": 89}
{"smiles": "N=C(NCCCSC[C@H]1O[C@@H](n2cnc3c(NCCCc4ccccc4)ncnc32)[C@H](O)[C@@H]1O)NCC1CC1", "note": "[Compound 19f]", "inhibition at 10 µM": 76}
{"target": "T1, PRMT1", "assay": "SAHH-coupled fluorescence assay, inhibition of PRMT1", "type": "biochemical", "conditions": "read-out: IC50 FOR PRMT1", "procedure": "as §1, §2, §3\nas §2, with “A fluorescence-based SAHH-coupled assay was applied to determine the inhibition activity of all synthesized compounds on PRMT 1 and 3. The PRMT1” for “The PRMT1”, “software 8.0. All experiments were performed in duplicate.” for “software 8.0.”", "units": {"IC50": "nM"}}
{"smiles": "CCCCNC(=N)NCCCSC[C@H]1O[C@@H](n2cnc3c(NCCCc4ccccc4)ncnc32)[C@H](O)[C@@H]1O", "note": "[Compound 19a]", "IC50": "650 ± 62"}
{"smiles": "N=C(NCCCSC[C@H]1O[C@@H](n2cnc3c(NCCCc4ccccc4)ncnc32)[C@H](O)[C@@H]1O)NC1CC1", "note": "[Compound 19b]", "IC50": "1200 ± 52"}
{"smiles": "N=C(NCCCSC[C@H]1O[C@@H](n2cnc3c(NCCCc4ccccc4)ncnc32)[C@H](O)[C@@H]1O)NC1CCC1", "note": "[Compound 19c]", "IC50": "550 ± 51"}
{"smiles": "N=C(NCCCSC[C@H]1O[C@@H](n2cnc3c(NCCCc4ccccc4)ncnc32)[C@H](O)[C@@H]1O)NC1CCCC1", "note": "[Compound 19d]", "IC50": "590 ± 71"}
{"smiles": "N=C(NCCCSC[C@H]1O[C@@H](n2cnc3c(NCCCc4ccccc4)ncnc32)[C@H](O)[C@@H]1O)NC1CCCCC1", "note": "[Compound 19e]", "IC50": "750 ± 46"}
{"smiles": "N=C(NCCCSC[C@H]1O[C@@H](n2cnc3c(NCCCc4ccccc4)ncnc32)[C@H](O)[C@@H]1O)NCC1CC1", "note": "[Compound 19f]", "IC50": "920 ± 91"}
{"target": "T2, PRMT4 (Homo sapiens, UniProt Q86X55)", "T2 sequence (Q86X55 1-608)": "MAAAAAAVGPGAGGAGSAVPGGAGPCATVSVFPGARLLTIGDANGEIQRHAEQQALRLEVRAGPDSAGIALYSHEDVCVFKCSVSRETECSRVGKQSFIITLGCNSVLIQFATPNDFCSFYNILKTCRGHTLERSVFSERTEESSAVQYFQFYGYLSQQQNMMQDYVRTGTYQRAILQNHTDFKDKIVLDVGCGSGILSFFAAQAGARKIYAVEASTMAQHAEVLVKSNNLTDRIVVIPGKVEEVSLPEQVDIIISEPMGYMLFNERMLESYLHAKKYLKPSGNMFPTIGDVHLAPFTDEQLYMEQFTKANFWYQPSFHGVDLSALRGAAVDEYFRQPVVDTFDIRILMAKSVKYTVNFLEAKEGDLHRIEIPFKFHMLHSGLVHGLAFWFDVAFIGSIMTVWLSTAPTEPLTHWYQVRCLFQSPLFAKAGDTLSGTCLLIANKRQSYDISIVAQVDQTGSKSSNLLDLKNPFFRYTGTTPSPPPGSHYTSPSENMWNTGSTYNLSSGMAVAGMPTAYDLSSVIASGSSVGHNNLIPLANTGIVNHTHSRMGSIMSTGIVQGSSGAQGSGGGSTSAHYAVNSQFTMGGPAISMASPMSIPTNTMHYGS", "assay": "radioactive assay (Reaction Biology Corp.), inhibition of PRMT4", "type": "biochemical", "conditions": "not given", "procedure": "as §3\n(§4) The PRMT 4, 6 and 8 methylation assays were performed by Reaction Biology corp.", "units": {"inhibition at 10 µM": "%"}}
{"smiles": "CCCCNC(=N)NCCCSC[C@H]1O[C@@H](n2cnc3c(NCCCc4ccccc4)ncnc32)[C@H](O)[C@@H]1O", "note": "[Compound 19a]", "inhibition at 10 µM": 47}
{"smiles": "N=C(NCCCSC[C@H]1O[C@@H](n2cnc3c(NCCCc4ccccc4)ncnc32)[C@H](O)[C@@H]1O)NC1CC1", "note": "[Compound 19b]", "inhibition at 10 µM": 23}
{"smiles": "N=C(NCCCSC[C@H]1O[C@@H](n2cnc3c(NCCCc4ccccc4)ncnc32)[C@H](O)[C@@H]1O)NC1CCC1", "note": "[Compound 19c]", "inhibition at 10 µM": 50}
{"smiles": "N=C(NCCCSC[C@H]1O[C@@H](n2cnc3c(NCCCc4ccccc4)ncnc32)[C@H](O)[C@@H]1O)NC1CCCC1", "note": "[Compound 19d]", "inhibition at 10 µM": 60}
{"smiles": "N=C(NCCCSC[C@H]1O[C@@H](n2cnc3c(NCCCc4ccccc4)ncnc32)[C@H](O)[C@@H]1O)NC1CCCCC1", "note": "[Compound 19e]", "inhibition at 10 µM": 44}
{"smiles": "N=C(NCCCSC[C@H]1O[C@@H](n2cnc3c(NCCCc4ccccc4)ncnc32)[C@H](O)[C@@H]1O)NCC1CC1", "note": "[Compound 19f]", "inhibition at 10 µM": 36}
{"target": "PRMT6 (Homo sapiens, UniProt Q96LA8)", "sequence (Q96LA8 whole entry, species assumed)": "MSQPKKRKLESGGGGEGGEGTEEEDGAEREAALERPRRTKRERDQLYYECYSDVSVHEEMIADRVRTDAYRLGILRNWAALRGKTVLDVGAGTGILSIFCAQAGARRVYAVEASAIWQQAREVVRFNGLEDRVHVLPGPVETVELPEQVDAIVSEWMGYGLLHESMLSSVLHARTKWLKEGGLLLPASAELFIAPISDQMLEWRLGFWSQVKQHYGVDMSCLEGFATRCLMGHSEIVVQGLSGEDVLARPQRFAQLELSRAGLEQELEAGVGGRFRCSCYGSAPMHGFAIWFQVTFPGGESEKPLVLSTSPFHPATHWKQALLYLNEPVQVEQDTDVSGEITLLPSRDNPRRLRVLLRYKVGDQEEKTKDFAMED", "assay": "radioactive assay (Reaction Biology Corp.), inhibition of PRMT6", "type": "biochemical", "conditions": "not given", "procedure": "as §3, §4", "units": {"inhibition at 10 µM": "%"}}
{"smiles": "CCCCNC(=N)NCCCSC[C@H]1O[C@@H](n2cnc3c(NCCCc4ccccc4)ncnc32)[C@H](O)[C@@H]1O", "note": "[Compound 19a]", "inhibition at 10 µM": 84}
{"smiles": "N=C(NCCCSC[C@H]1O[C@@H](n2cnc3c(NCCCc4ccccc4)ncnc32)[C@H](O)[C@@H]1O)NC1CC1", "note": "[Compound 19b]", "inhibition at 10 µM": 73}
{"smiles": "N=C(NCCCSC[C@H]1O[C@@H](n2cnc3c(NCCCc4ccccc4)ncnc32)[C@H](O)[C@@H]1O)NC1CCC1", "note": "[Compound 19c]", "inhibition at 10 µM": 93}
{"smiles": "N=C(NCCCSC[C@H]1O[C@@H](n2cnc3c(NCCCc4ccccc4)ncnc32)[C@H](O)[C@@H]1O)NC1CCCC1", "note": "[Compound 19d]", "inhibition at 10 µM": 91}
{"smiles": "N=C(NCCCSC[C@H]1O[C@@H](n2cnc3c(NCCCc4ccccc4)ncnc32)[C@H](O)[C@@H]1O)NC1CCCCC1", "note": "[Compound 19e]", "inhibition at 10 µM": 88}
{"smiles": "N=C(NCCCSC[C@H]1O[C@@H](n2cnc3c(NCCCc4ccccc4)ncnc32)[C@H](O)[C@@H]1O)NCC1CC1", "note": "[Compound 19f]", "inhibition at 10 µM": 88}
{"target": "PRMT8 (Homo sapiens, UniProt Q9NR22)", "sequence (Q9NR22 whole entry, species assumed)": "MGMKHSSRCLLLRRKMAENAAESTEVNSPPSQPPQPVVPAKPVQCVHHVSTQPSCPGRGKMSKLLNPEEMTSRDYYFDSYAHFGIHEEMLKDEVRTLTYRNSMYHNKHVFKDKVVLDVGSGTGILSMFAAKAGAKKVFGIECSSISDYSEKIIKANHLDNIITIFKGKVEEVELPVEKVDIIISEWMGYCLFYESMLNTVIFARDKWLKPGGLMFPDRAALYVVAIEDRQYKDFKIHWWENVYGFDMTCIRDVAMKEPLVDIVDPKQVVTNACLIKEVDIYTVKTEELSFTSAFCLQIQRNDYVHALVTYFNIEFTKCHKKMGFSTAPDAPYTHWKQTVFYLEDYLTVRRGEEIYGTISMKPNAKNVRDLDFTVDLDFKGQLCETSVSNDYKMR", "assay": "radioactive assay (Reaction Biology Corp.), inhibition of PRMT8", "type": "biochemical", "conditions": "not given", "procedure": "as §3, §4", "units": {"inhibition at 10 µM": "%"}}
{"smiles": "CCCCNC(=N)NCCCSC[C@H]1O[C@@H](n2cnc3c(NCCCc4ccccc4)ncnc32)[C@H](O)[C@@H]1O", "note": "[Compound 19a]", "inhibition at 10 µM": 85}
{"smiles": "N=C(NCCCSC[C@H]1O[C@@H](n2cnc3c(NCCCc4ccccc4)ncnc32)[C@H](O)[C@@H]1O)NC1CC1", "note": "[Compound 19b]", "inhibition at 10 µM": 69}
{"smiles": "N=C(NCCCSC[C@H]1O[C@@H](n2cnc3c(NCCCc4ccccc4)ncnc32)[C@H](O)[C@@H]1O)NC1CCC1", "note": "[Compound 19c]", "inhibition at 10 µM": 91}
{"smiles": "N=C(NCCCSC[C@H]1O[C@@H](n2cnc3c(NCCCc4ccccc4)ncnc32)[C@H](O)[C@@H]1O)NC1CCCC1", "note": "[Compound 19d]", "inhibition at 10 µM": 85}
{"smiles": "N=C(NCCCSC[C@H]1O[C@@H](n2cnc3c(NCCCc4ccccc4)ncnc32)[C@H](O)[C@@H]1O)NC1CCCCC1", "note": "[Compound 19e]", "inhibition at 10 µM": 79}
{"smiles": "N=C(NCCCSC[C@H]1O[C@@H](n2cnc3c(NCCCc4ccccc4)ncnc32)[C@H](O)[C@@H]1O)NCC1CC1", "note": "[Compound 19f]", "inhibition at 10 µM": 74}
{"target": "PRMT3 (Homo sapiens, UniProt O60678)", "sequence (O60678 211-531)": "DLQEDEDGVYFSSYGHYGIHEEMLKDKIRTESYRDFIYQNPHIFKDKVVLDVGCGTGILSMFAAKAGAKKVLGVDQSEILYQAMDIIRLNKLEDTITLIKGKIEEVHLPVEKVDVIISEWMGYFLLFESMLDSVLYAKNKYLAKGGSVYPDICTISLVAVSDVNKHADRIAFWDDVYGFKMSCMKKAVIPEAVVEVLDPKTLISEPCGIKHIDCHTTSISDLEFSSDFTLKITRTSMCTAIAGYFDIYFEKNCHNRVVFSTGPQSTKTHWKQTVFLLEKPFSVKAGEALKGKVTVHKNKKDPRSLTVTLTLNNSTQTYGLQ", "assay": "SAHH-coupled fluorescence assay, inhibition of PRMT3", "type": "biochemical", "parameters": "PRMT3 (residues 211-531) was cloned into the pET28a-MHL expression vector; tag of the pET28a-MHL vector (not described); made in house; host or cells: Escherichia coli BL21(DE3)", "conditions": "not given", "procedure": "as §1\n(§5) The PRMT3 methylation assay was performed under the following conditions in a final well volume of 100 μL: 20 mM Tris (pH=7.5), 0.01% Triton X-100, 5 μM SAHH, 0.25 μM PRMT3, 30 μM AdoMet, and 15 μM ThioGlo4. […] Fluorescence was monitored on a BMG CLARIOstar microplate reader with excitation 380 nm and emission 505 nm. Data were processed by using GraphPad Prism software 8.0. All experiments were performed in duplicate.\nas §3\nas §5, with “8.0.” for “8.0. All experiments were performed in duplicate.”", "units": {"inhibition at 10 µM": "%"}}
{"smiles": "CCCCNC(=N)NCCCSC[C@H]1O[C@@H](n2cnc3c(NCCCc4ccccc4)ncnc32)[C@H](O)[C@@H]1O", "note": "[Compound 19a]", "inhibition at 10 µM": 14}
{"smiles": "N=C(NCCCSC[C@H]1O[C@@H](n2cnc3c(NCCCc4ccccc4)ncnc32)[C@H](O)[C@@H]1O)NC1CC1", "note": "[Compound 19b]", "inhibition at 10 µM": 13}
{"smiles": "N=C(NCCCSC[C@H]1O[C@@H](n2cnc3c(NCCCc4ccccc4)ncnc32)[C@H](O)[C@@H]1O)NC1CCC1", "note": "[Compound 19c]", "inhibition at 10 µM": 8}
{"smiles": "N=C(NCCCSC[C@H]1O[C@@H](n2cnc3c(NCCCc4ccccc4)ncnc32)[C@H](O)[C@@H]1O)NC1CCCC1", "note": "[Compound 19d]", "inhibition at 10 µM": 8}
{"smiles": "N=C(NCCCSC[C@H]1O[C@@H](n2cnc3c(NCCCc4ccccc4)ncnc32)[C@H](O)[C@@H]1O)NC1CCCCC1", "note": "[Compound 19e]", "inhibition at 10 µM": 10}
{"smiles": "N=C(NCCCSC[C@H]1O[C@@H](n2cnc3c(NCCCc4ccccc4)ncnc32)[C@H](O)[C@@H]1O)NCC1CC1", "note": "[Compound 19f]", "inhibition at 10 µM": 3}
